Earlier results on 1 molecule are cited in patent US5358942A, “Inhibition of protein kinase C with Cyclic phosphonate compounds” (Louisiana State University, priority 1993, dated 1994).

The test system of this data set is carnitine palmitoyltransferase (CPT).

As for `CCCCCCCCCCCCCCC[C@@]1(O)C[N+](C)(C)C[C@H](CC(=O)O)O1.[Br-]` [Hemipalmitoyl carnitinium (HPC), Hemipalmitoyl carnitinium], the “inhibition of carnitine palmitoyltransferase (CPT)” value is “potently inhibits”.
